Data set [1] addresses T1, human mineralocorticoid receptor (MR) (Homo sapiens, UniProt P08235).
T1 construct: expressed in transfected cells; host or cells: HEK293, transient transfection (Fugene), CMV promoter plasmid
T1 sequence (P08235 1-984): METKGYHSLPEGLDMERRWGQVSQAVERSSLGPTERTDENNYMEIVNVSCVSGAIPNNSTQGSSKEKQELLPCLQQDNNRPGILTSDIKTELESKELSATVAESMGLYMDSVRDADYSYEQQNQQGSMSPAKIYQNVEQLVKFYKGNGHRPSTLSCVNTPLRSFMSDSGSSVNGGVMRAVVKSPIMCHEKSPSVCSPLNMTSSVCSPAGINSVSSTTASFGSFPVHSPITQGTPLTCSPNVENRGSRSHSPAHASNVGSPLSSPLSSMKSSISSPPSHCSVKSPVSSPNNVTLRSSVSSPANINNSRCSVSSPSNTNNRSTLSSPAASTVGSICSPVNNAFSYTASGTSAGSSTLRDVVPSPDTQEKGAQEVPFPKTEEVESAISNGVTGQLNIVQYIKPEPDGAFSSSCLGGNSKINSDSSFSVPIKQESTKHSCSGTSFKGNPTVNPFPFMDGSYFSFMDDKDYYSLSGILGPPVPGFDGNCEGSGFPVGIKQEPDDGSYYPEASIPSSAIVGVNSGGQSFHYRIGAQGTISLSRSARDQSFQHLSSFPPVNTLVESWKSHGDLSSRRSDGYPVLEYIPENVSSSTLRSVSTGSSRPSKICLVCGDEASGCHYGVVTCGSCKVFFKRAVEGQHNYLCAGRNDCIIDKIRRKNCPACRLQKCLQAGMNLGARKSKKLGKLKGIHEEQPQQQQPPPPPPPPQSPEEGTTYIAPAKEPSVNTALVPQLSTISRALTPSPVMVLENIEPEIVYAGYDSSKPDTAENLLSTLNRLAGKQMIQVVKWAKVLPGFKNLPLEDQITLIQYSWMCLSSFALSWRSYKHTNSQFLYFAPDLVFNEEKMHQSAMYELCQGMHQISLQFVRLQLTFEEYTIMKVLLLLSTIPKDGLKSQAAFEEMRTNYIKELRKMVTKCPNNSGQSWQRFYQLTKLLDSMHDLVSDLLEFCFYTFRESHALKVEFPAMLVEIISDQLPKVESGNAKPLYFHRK
In words: Nuclear hormone receptor functional modulation assay (GRE-luciferase, HEK293), MR. It is filed as cell-based. An excerpt:
The solvents, reagents, and ligands employed in the functional assay are readily available from commercial sources, or can be prepared by one of ordinary skill in the art.
Human embryonic kidney HEK293 cells are transfected with steroid hormone receptor and reporter gene plasmids using Fugene™ (Roche Diganostics) transfection reagent. Briefly, the reporter plasmid containing two copies of probasin ARE (androgen response element 5′GGTTCTTGGAGTACT3′ (SEQ ID NO:1)) and TK(thymidine kinase) promoter upstream of the luciferase reporter cDNA, is transfected into HEK293 cells with a plasmid constitutively expressing human androgen receptor (AR) using viral CMV(cytomegalovirus) promoter. The reporter plasmid containing two copies of GRE (glucocorticoid response element 5′TGTACAGGATGTTCT′3 (SEQ ID NO:2)) and TK promoter upstream of the luciferase reporter cDNA is transfected with a plasmid constitutively expressing either human glucocorticoid receptor (GR), human mineralocorticoid receptor (MR), or human progesterone receptor (PR) using viral CMV promoter. Cells are transfected in T150 cm flasks in DMEM media with 5% charcoal-stripped Fetal Bovine Serum (FBS). […] In the antagonist mode for the assays, low concentrations of agonist for each respective receptor are added to the media (0.25 nM dexamethasone for GR, 0.3 nM of methyltrienolone for AR, 0.05 nM of promegestone for PR and 0.05 nM aldosterone for MR), and the ability of test compound to antagonize the agonist response is determined. After 24 hours of incubation with test compounds, cells are lysed and luciferase activity is determined using standard techniques.
Data are fitted to a four parameter-fit logistic curve fit to determine EC50 values. […] IC50 values may be determined similarly using antagonist mode assay data. Percent inhibitions may also be determined relative to the response in the presence of agonist alone, as described above.

In data set [2] the test system is human hepatocyte cultures. In words: Metabolism in human hepatocyte cultures in vitro. It is filed as in vitro ADME.
A short description of data set [3]: Metabolic profiling of plasma after in vivo administration, rat.
The nature of data set [4]: Metabolic profiling of plasma after in vivo administration, dog.
Data set [5] can be described thus: In vivo studies of genotoxic potential.

One may read the EC50 as the concentration giving half of the maximal effect. With `CC/C(=C1\c2ccc(Cl)cc2OCc2ncccc21)c1cccc(NS(C)(=O)=O)c1` [Compound (I), (E)-N-{3-[1-(8-Chloro-11H-10-oxa-1-aza-dibenzo[a,d]cyclohepten-5-ylidene)-propyl]-phenyl}-methanesulfonamide], in data set [1] (agonist mode, activating transcription), the concentration giving a half-maximal response (EC50) was above 10 µM. In addition, in data set [1] (functional modulation, in words), the “modulation of gene expression mediated by MR” value was “only limited activity”. Moreover, the “MR % Eff.” value in data set [1] (percent efficacy at 10 μM relative to 30 nM aldosterone, mean of 3) is given as 8.5%. Further, the “metabolism when incubated with human hepatocyte cultures” value in data set [2] was “only minor metabolism”. The “circulating entity in plasma” value in data set [3] and in data set [4] was “major circulating entity” throughout. Moreover, the genotoxic potential result in data set [5] is “non-genotoxic”.

The values above are taken from patent publication US8101760B2, “Glucocorticoid receptor modulator and methods of use” (Eli Lilly and Company, priority 2007, dated 2012).
